This assay deals with T1, DPP-IV (Homo sapiens, UniProt P27487).
T1 construct: purchased Enzyme Systems Products SPE-01
Nature of the assay: In vitro assay for dipeptidyl peptidase inhibition. It is filed as biochemical. The conditions noted are these: n-value given in brackets; read-out: DPP-IV IC50.

Where a name gives a salt, the structure may show the parent alone.

T1 sequence (P27487 whole entry, species assumed): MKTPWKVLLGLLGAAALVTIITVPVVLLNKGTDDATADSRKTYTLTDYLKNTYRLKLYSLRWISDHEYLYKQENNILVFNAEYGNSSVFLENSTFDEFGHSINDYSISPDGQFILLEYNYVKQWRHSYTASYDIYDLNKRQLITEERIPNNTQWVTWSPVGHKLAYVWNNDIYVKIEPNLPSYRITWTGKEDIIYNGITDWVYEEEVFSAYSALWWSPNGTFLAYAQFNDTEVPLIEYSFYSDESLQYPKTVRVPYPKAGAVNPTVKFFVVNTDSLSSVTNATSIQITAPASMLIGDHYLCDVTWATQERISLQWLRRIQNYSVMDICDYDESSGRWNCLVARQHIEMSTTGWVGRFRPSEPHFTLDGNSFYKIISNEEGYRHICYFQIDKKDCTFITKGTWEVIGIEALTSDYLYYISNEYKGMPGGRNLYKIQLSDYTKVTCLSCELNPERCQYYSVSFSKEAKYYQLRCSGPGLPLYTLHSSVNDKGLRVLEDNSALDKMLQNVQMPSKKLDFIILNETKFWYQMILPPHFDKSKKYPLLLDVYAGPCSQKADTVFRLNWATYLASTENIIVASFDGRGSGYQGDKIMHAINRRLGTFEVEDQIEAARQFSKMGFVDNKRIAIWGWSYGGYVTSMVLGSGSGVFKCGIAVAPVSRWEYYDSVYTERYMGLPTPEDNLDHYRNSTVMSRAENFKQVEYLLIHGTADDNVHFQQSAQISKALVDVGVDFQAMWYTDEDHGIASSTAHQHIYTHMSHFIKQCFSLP

For orientation: IC50 means the point on the concentration scale where inhibition reaches its midpoint. On to “1-((3S,4S)-4-Amino-1-(4-((R)-3-fluoropyrrolidin-1-yl)-1,3,5-triazin-2-yl)pyrrolidin-3-yl)piperidin-2-onetrifluoroacetate [Example 27]”, for which the half-inhibitory concentration (IC50) was determined as 92.2 nM.

“1-((3S,4S)-4-Amino-1-(6-(pyrrolidin-1-yl)pyrimidin-4-yl)pyrrolidin-3-yl)pyrrolidin-2-one(dihydrochloride) [Example 31]”: the IC50 stood at 483 nM.

`Cc1nc(N2C[C@H](N)[C@@H](N3CC(F)(F)CCC3=O)C2)cc(N2CCC(F)(F)C2)n1` [Example 3, 1-((3S,4S)-4-amino-1-(6-(3,3-difluoropyrrolidin-1-yl)-2-methylpyrimidin-4-yl)pyrrolidin-3-yl)-5,5-difluoropiperidin-2-one]: the IC50 came out at 12.6 nM.

Turning to `N[C@H]1CN(c2cc(N3CCc4nocc4C3)ncn2)C[C@@H]1N1CC(F)(F)CCC1=O` [Example 4, 1-((3S,4S)-4-amino-1-(6-(6,7-dihydroisoxazolo[4,3-c]pyridin-5(4H)-yl)pyrimidin-4-yl)pyrrolidin-3-yl)-5,5-difluoropiperidin-2-one], the IC50 worked out at 6.08 nM.

For the compound `N[C@H]1CN(c2cc(N3CCc4nocc4C3)ncn2)C[C@@H]1N1CCCCC1=O` [Example 5, 1-((3S,4S)-4-Amino-1-(6-(6,7-dihydroisoxazolo[4,3-c]pyridin-5(4H)-yl)pyrimidin-4-yl)pyrrolidin-3-yl)piperidin-2-one dihydrochloride], the IC50 was 11.8 nM.

For `N[C@H]1CN(c2cc(-c3ccccc3)ncn2)C[C@@H]1N1CCCC1=O` [Example 6, 1-((3S,4S)-4-Amino-1-(6-phenylpyrimidin-4-yl)pyrrolidin-3-yl)pyrrolidin-2-one dihydrochloride], the 50% inhibitory concentration (IC50) was 488 nM.

`N[C@H]1CN(c2cc(-c3ccccc3)ncn2)C[C@@H]1N1CCCCC1=O` [Example 7, 1-((3S,4S)-4-Amino-1-(6-phenylpyrimidin-4-yl)pyrrolidin-3-yl)piperidin-2-one hydrochloride]: the IC50 is 47.4 nM.

Regarding `N[C@H]1CN(c2cc(-c3ccc(O)nc3)ncn2)C[C@@H]1N1CCCCC1=O` [Example 8, 1-{(3S,4S)-4-Amino-1-[6-(6-hydroxy-pyridin-3-yl)pyrimidin-4-yl]-pyrrolidin-3-yl}-piperidin-2-one], the IC50 was 27.1 nM.

Regarding `COc1ccc(-c2cc(N3C[C@H](N)[C@@H](N4CC(F)(F)CCC4=O)C3)ncn2)cn1` [Example 9, 1-((3S,4S)-4-amino-1-(6-(6-methoxypyridin-3-yl)pyrimidin-4-yl)pyrrolidin-3-yl)-5,5-difluoropiperidin-2-one trifluoroacetate], the IC50 came to 27.3 nM.

As to `N[C@H]1CN(c2cc(N3CCC(F)(F)C3)ncn2)C[C@@H]1N1CCCCC1=O` [Example 10, 1-((3S,4S)-4-Amino-1-(6-(3,3-difluoropyrrolidin-1-yl)pyrimidin-4-yl)pyrrolidin-3-yl)piperidin-2-onedihydrochloride], the IC50 came to 25.5 nM.

Take `N[C@H]1CN(c2ncnc(N3CCC(F)(F)C3)n2)C[C@@H]1N1CCCCC1=O` [Example 11, 1-{(3S,4S)-4-Amino-1-[4-(3,3-difluoro-pyrrolidin-1-yl)-[1,3,5]triazin-2-yl]-pyrrolidin-3-yl}-piperidin-2-onedihydrochloride]: the IC50 came out at 37.4 nM.

With `N[C@H]1CN(c2cc(N3CCC(F)(F)C3)ncn2)C[C@@H]1N1CCCC1=O` [Example 12, 1-((3S,4S)-4-Amino-1-(6-(3,3-difluoropyrrolidin-1-yl)pyrimidin-4-yl)pyrrolidin-3-yl)pyrrolidin-2-onedihydrochloride], the IC50 was 522 nM.

In the case of `N[C@H]1CN(c2cc(N3CCC(F)(F)C3)nc(C(F)(F)F)n2)C[C@@H]1N1CC(F)(F)CCC1=O` [Example 13, 1-((3S,4S)-4-amino-1-(6-(3,3-difluoropyrrolidin-1-yl)-2-(trifluoromethyl)pyrimidin-4-yl)pyrrolidin-3-yl)-5,5-difluoropiperidin-2-one], the concentration for half-maximal inhibition (IC50) came to 56.7 nM.

These data come from US7485641B2, “Substituted 3-amino-pyrrolidino-4-lactams” (Pfizer, Inc., priority 2006, dated 2009).
